According to US20250302719A1, “COLLAGEN PRODUCTION PROMOTER, COSMETIC COMPOSITION OR EXTERNAL PREPARATION FOR SKIN, AND PREPARATION FOR ORAL ADMINISTRATION” (YAMASA CORPORATION, priority 2022, published 2025):

Experiments:
[1] = system: Normal human fibroblasts (NHDF); assay: Type I collagen production by normal human fibroblasts treated with normal human epidermal cell culture supernatant (K-CM, Example 3, ELISA); assay type: cell-based; conditions: for amount of collagen in the culture supernatant of normal human fibroblasts (type I collagen): K-CM: supernatant of normal human epidermal cells treated with 1.25, 2.5, 5 mM sample for 24 hours, fibroblasts 24 hours
Protocol: (§1) The effects of promoting collagen production for pyrimidine nucleotides were then evaluated with the culture supernatant from normal human epidermal cells and with fibroblasts. In this evaluation, the effects were compared for the case where the fibroblasts were directly treated with pyrimidine nucleotides and the case where the fibroblasts were treated with the normal human epidermal cell culture supernatant treated with the pyrimidine nucleotides.
Normal human epidermal cells (NHEK; Kurabo) were seeded in a 96-well plate at a density of 2.5×10^4 cells/well and cultured at 37° C. for 24 hours. The medium was replaced with 100 μL of sample-containing medium (HuMedia-KG2; Kurabo) and cultured for 24 hours. After culturing, the culture supernatant was collected. The sample solutions used were 0, 1.25, 2.5, and 5 (mM) (i.e., 0, 0.0459, 0.0918, and 0.184 (w/v %)) of CMP, 2Na, and 0, 1.25, 2.5, and 5 (mM) (i.e., 0, 0.046, 0.092, and 0.184 (w/v %)) of UMP, 2Na.
Normal human fibroblasts (NHDF; Kurabo) were seeded in a 96-well plate at a density of 2.5×10^4 cells/well/100 μL and cultured at 37° C. for 24 hours. The medium was then replaced with 100 μL of the culture supernatant obtained in the culture supernatant acquisition step from the three-dimensional cultured epidermis as described above and cultured for 24 hours.
(§2) The culture supernatant of normal human fibroblasts was collected and an amount of type I collagen was quantified by ELISA. The protein amount of the culture supernatant was also measured by BCA protein assay.

[2] = system: Collagen 1A1 (COL1A1); assay: mRNA expression of COL1A1 in fibroblasts treated with culture supernatant from three-dimensional cultured epidermis (Example 2, real time PCR); assay type: cell-based, human; conditions: three-dimensional cultured epidermis treated with CMP, 2Na 1.0, 2.0 w/v %; supernatant on fibroblasts; GAPDH endogenous control
Protocol: Similarly, the mRNA expression levels of Collagen 1A1 (COL1A1), a factor related to type I collagen synthesis, were quantified by real-time PCR.
(§3) Three-dimensional cultured epidermis (LabCyte EPI MODEL 24; manufactured by J TEC) was set in a 24-well plate to which 500 μL of the attached assay medium was added, and conditioned overnight at 37° C. 50 μL of sample-containing PBS (-) was applied from the stratum corneum side and cultured for 24 hours. After removing the sample-containing PBS (-), the plate was washed with PBS (-). The medium was replaced with a fresh medium, 50 μL of sample-containing PBS (-) was newly applied from the stratum corneum side, and further cultured for 48 hours. After culturing, the culture supernatant was collected. The concentrations of CMP, 2Na in the respective samples were 0, 1.0, and 2.0 (w/v %), respectively.
Normal human fibroblasts were treated with the culture supernatant by the same method as that of Example 1. RNA was extracted from NHDF using RNeasy Mini Kit (QIAGEN), and mRNA expression analysis for collagen 1A1 (COL1A1) was performed by real time PCR ([…]). Glyceraldehyde 3-phosphate dehydrogenase (GAPDH) was used as an endogenous control.

[3] = system: Normal human fibroblasts (NHDF); assay: Type I collagen production by normal human fibroblasts treated with culture supernatant from three-dimensional cultured epidermis (Example 1, ELISA); assay type: cell-based; conditions: three-dimensional cultured epidermis treated with CMP, 2Na 0.125, 0.25, 1.0, 2.0 w/v % from stratum corneum side, supernatant on fibroblasts 24 hours
Protocol: To reproduce the phenomenon that would occur in actual epidermis, the effect of promoting collagen production for pyrimidine nucleotides was evaluated with a culture supernatant from three-dimensional cultured epidermis, and with fibroblasts.
as §3, with “The samples to be treated with UVB were irradiated with 600 mJ/cm^2 using a UVB lamp (TL20W/12RS; manufactured by PHILIPS). For both samples with and without the UVB treatment, the media were” for “The medium was”, “with” for “with a”, “fresh media,” for “fresh medium,”, “0, 0.125, 0.25, 1.0” for “0, 1.0,”, “respectively. […]” for “respectively.”
The culture supernatant from normal human fibroblasts was collected and an amount of type I collagen was quantified by ELISA. The protein amount of the culture supernatant was also measured by BCA protein assay.

[4] = system: Normal human fibroblasts (NHDF); assay: Type I collagen production by normal human fibroblasts directly treated with sample (Example 3, ELISA); assay type: cell-based; conditions: direct treatment of normal human fibroblasts with 1.25, 2.5, 5 mM sample, 24 hours
Protocol: as §1
Normal human fibroblasts (NHDF; Kurabo) were seeded in a 96-well plate at a density of 2.55×10^4 cells/well/100 μL and cultured at 37° C. for 24 hours. The medium was then replaced with 100 μL of media (HuMedia-KG2; Kurabo) containing CMP, 2Na at 0, 1.25, 2.5, 5 (mM) (i.e., 0, 0.0459, 0.0918, 0.184 (w/v %)) and UMP, 2Na at 0, 1.25, 2.5, 5 (MM) (i.e., 0, 0.046, 0.092, 0.184 (w/v %)), and cultured for 24 hours.
as §2

[5] = system: freshly extracted human skin; assay: Ex vivo evaluation test using freshly extracted human skin, elastica-van Gieson staining of collagen fibers (Example 4); conditions: CMP, 2Na 1.0, 2.0 w/v % applied from stratum corneum side, total of 72 hours
Protocol: To evaluate the effect on actual skin with greater precision, an ex vivo evaluation test was conducted using freshly extracted human skin.
Abdominal skin tissue was used, which was taken from a patient during cosmetic surgery, after obtaining informed consent for use in research. The extracted skin was placed in a culture plate supplemented with 1.3 ml of D-MEM/Ham's F-12 medium, and conditioned overnight at 37° C. in 5% CO2. An appropriate amount of PBS (-) containing a given concentration of each sample was applied from the stratum corneum side, and further cultured for 24 hours. The treatment was continued for a total of 72 hours while replacing the sample and medium with fresh ones every 24 hours. The concentrations of CMP, 2Na in the respective samples were 0, 1.0, and 2.0 (w/v %).
After the cultured skin tissue was fixed according to a standard method, skin tissue sections were prepared, collagen fibers were stained with elastica-van Gieson stain, and observed under a microscope.

[6] = system: cultured human skin fibroblasts; conditions: uridylic acid alone, as disclosed in Patent Literature 1; cited from earlier work

Row | Compound | effect of promoting collagen production, cytidylic acid compared with uridylic acid ([1]; Example 3) | amount of collagen in the culture supernatant of normal human fibroblasts (type I collagen) [1] | expression level of COL1A1 (mRNA, relative to 0 w/v %) [2] | amount of collagen in the culture supernatant from normal human fibroblasts (type I collagen) ([3]; UVB 600 mJ/cm^2) | amount of collagen in the culture supernatant from normal human fibroblasts (type I collagen) ([3]; UVB (-)) | amount of collagen (type I collagen) [4] | collagen fibers in dermis (elastica-van Gieson stain) [5] | effect of promoting collagen production [6]
1 | Nc1ccn([C@@H]2O[C@H](COP(=O)(O)O)[C@@H](O)[C@H]2O)c(=O)n1 [CMP, 2Na, disodium cytidylate] | higher effect of promoting collagen production | increased | increased | increased | increased | no increase | tended to result in denser collagen fibers | –
2 | O=c1ccn([C@@H]2O[C@H](COP(=O)(O)O)[C@@H](O)[C@H]2O)c(=O)[nH]1 [UMP, 2Na, disodium uridylate] | – | increased | – | – | – | no increase | – | no effect of promoting collagen production
